What was measured:
cBid+Bax = test: Control liposome permeabilization without Bcl-xL, cBid+Bax; format: biochemical; details: 320 nM pH9 treated TCTP, 100 nM Bax, 20 nM cBid
Description: (A–E) in vitro reconstitution assay on liposome permeabilization. […] The treated Bcl-xL was then added to reactions containing ANTS-DPX liposomes, 100 nM Bax and 20 nM of either cBid (A,B) or cBidmt1(C,D) at pH 7. Liposome permeabilization was quantified by fluorescence after 5h incubation at 37 °C where 100% release was defined as the fluorescence change due to lipid solubilization with 1% Triton X-100. […] Error bars, std. dev. n = 3. To compare between the TCTP treated groups and the Control group statistically, two-way ANOVA test was performed for (A–D) and one-way ANOVA test was performed for (E). […] Colored asterisks above each data point indicate the statistical significance (*p < 0.05; **p < 0.01, no asterisks if p ≥ 0.05). A complete statistical analysis is provided in Supplementary Table 2–4. (F) Permeabilization assays of mitochondrial membrane by tBid and Bax assessing cytochrome c release. […] Cyto c extra-mito: in the supernatant, analysed by Western blot. […]
(§1) Figure 10 A,B) or cBid mt1 (Supplementary Figure 10 C,D) at pH 7 to quantify the activity of Bcl-xL inhibition of liposome permeablization. […]
the Control group (No TCTP) were analyzed through Dunnett's multiple comparisons test at each sample condition (Bcl-XL concentration) for statistical significance. […]
Statistical significance was analyzed through Dunnett's multiple comparisons test. […]

[1] = system: Bcl-xL inhibition of cBid/Bax; test: In vitro reconstitution liposome permeabilization, cBid/Bax with Bcl-xL; format: biochemical; details: ANTS/DPX liposomes, 100 nM Bax, 20 nM cBid, pre-incubation pH 9, 45 min, 37 °C, 5 h, pH 7
Source text: This purified assay system measures direct interactions in which full-length untagged Bcl-xL inhibits permeabilization by binding full-length caspase 8 cleaved Bid (cBid) and/or full-length untagged Bax, thereby preventing Bax oligomerization in membranes. […] In these assays liposome permeabilization by activated Bax releases the entrapped fluorophore/quencher pair 8-aminonaphthalene-1,3,6-trisulfonic acid (ANTS)/p-xylene-bispyridinium (DPX), resulting in a measurable increase of fluorescence.
(A–E) in vitro reconstitution assay on liposome permeabilization. […] The treated Bcl-xL was then added to reactions containing ANTS-DPX liposomes, 100 nM Bax and 20 nM of either cBid (A,B) or cBidmt1(C,D) at pH 7. Liposome permeabilization was quantified by fluorescence after 5h incubation at 37 °C where 100% release was defined as the fluorescence change due to lipid solubilization with 1% Triton X-100. […] Error bars, std. dev. n = 3. […] Cyto c extra-mito: in the supernatant, analysed by Western blot. […]
as §1
then added to reactions containing ANTS-DPX liposomes, 100nM Bax and 20nM of either c Bid (A, C) or cBid mt1(B, D) at pH 7 and liposome permeabilization was quantified by fluorescence […]

Bcl-xL = test: In cellulo BRET between Luciferase-fused TCTP and YFP-fused Bcl-xL; format: cell-based; details: MCF-7 cells; donor Luciferase-fused TCTP, acceptor YFP-fused Bcl-xL
Source text: See Supplementary Information for full details.
Twenty-four hours later, cells
Protein expression and purification

TCTP: Translationally Controlled Tumor Protein (TCTP/tpt1), recombinant full-length
effect on cBid-Bax induced permeabilization not containing Bcl-xL (cBid+Bax): no effect
effect on Bcl-xL inhibition of cBid/Bax-mediated liposome permeabilization [1]: enhanced Bcl-xL inhibition
BRET signals with Bcl-xL (Bcl-xL): saturable BRET signals
